In US10221160B2, “Metalloenzyme inhibitor compounds” (Mycovia Pharmaceuticals, Inc., priority 2012, dated 2019):

The compounds below were run on C. albicans (assay: Minimum Inhibitory Concentration (MIC), CLSI M27-A2). Conditions: Candida albicans, rating scale, read-out: Candida MIC Rating.
Format: cell-based
Protocol: A. Minimum Inhibitory Concentration (MIC) Compounds were assessed for their ability to inhibit the growth of common strains of fungus, C. albicans using a standardized procedure (CLSI M27-A2). Stock solutions of the test compounds and standards were prepared in DMSO at 1,600 μg/mL (C. albicans). Eleven, serial, one-half dilutions of compounds were prepared in 96-well plates in RPMI+MOPS. The assay concentration ranges were 8-0.001 μg/mL (C. albicans). Cell suspensions of C. albicans were prepared and added to each well at concentrations of approximately 3.7×10^3 colony-forming-units per milliliter (cfu/mL). All testing was in duplicate. The inoculated plates were incubated for approximately 48 h at 35±1° C. At the completion of incubation the wells of each plate were evaluated visually for the presence of fungal growth. […] For QC purposes C. krusei isolate ATCC 6258 (4.0×10^3 cfu/mL) was included in the VOR assay.

MIC, < 0.5 µg/mL:
OC(Cn1cnnn1)(c1ccc(F)cc1F)C(F)(F)c1ccc(-c2ccc(N3CCOCC3)cc2)cn1 (stereo not shown) [Example 36, 2-(2,4-Difluorophenyl)-1,1-difluoro-1-(5-(4-morpholinophenyl)pyridin-2-yl)-3-(1H-tetrazol-1-yl)propan-2-ol]
OC(Cn1cnnn1)(c1ccc(F)cc1F)C(F)(F)c1ccc(-c2ccc(Cl)c(F)c2)cn1 (stereo not shown) [Example 29, 1-(5-(4-Chloro-3-fluorophenyl)pyridin-2-yl)-2-(2,4-difluorophenyl)-1,1-difluoro-3-(1H-tetrazol-1-yl)propan-2-ol]
Oc1cccc(-c2ccc(C(F)(F)C(O)(Cn3cnnn3)c3ccc(F)cc3F)nc2)c1 (stereo not shown) [Example 30, 3-(6-(2-(2,4-Difluorophenyl)-1,1-difluoro-2-hydroxy-3-(1H-tetrazol-1-yl)propyl)pyridin-3-yl)phenol]
CC(C)(C)Oc1ccc(-c2ccc(C(F)(F)C(O)(Cn3cnnn3)c3ccc(F)cc3F)nc2)cc1 (stereo not shown) [Example 28, 1-(5-(4-(tert-Butoxy)phenyl)pyridin-2-yl)-2-(2,4-difluorophenyl)-1,1-difluoro-3-(1H-tetrazol-1-yl)propan-2-ol]
CNC(=O)c1ccc(-c2ccc(C(F)(F)C(O)(Cn3cnnn3)c3ccc(F)cc3F)nc2)cc1 (stereo not shown) [Example 42, 4-(6-(2-(2,4-Difluorophenyl)-1,1-difluoro-2-hydroxy-3-(1H-tetrazol-1-yl)propyl)pyridin-3-yl)-N-methylbenzamide]
OC(Cn1cnnn1)(c1ccc(F)cc1F)C(F)(F)c1ccc(-c2ccc(OC(F)F)cc2)cn1 (stereo not shown) [Example 38, 1-(5-(4-(Difluoromethoxy)phenyl)pyridin-2-yl)-2-(2,4-difluorophenyl)-1,1-difluoro-3-(1H-tetrazol-1-yl)propan-2-ol]
O=C(c1ccc(-c2ccc(C(F)(F)C(O)(Cn3cnnn3)c3ccc(F)cc3F)nc2)cc1)C(F)(F)F (stereo not shown) [Example 33, 1-(4-(6-(2-(2,4-Difluorophenyl)-1,1-difluoro-2-hydroxy-3-(1H-tetrazol-1-yl)propyl)pyridin-3-yl)phenyl)-2,2,2-trifluoroethanone]
OC(Cn1cnnn1)(c1ccc(F)cc1F)C(F)(F)c1ccc(-c2ccc(Cl)cc2)cn1 (stereo not shown) [Example 9, 1-(5-(4-Chlorophenyl)pyridin-2-yl)-2-(2,4-difluorophenyl)-1,1-difluoro-3-(1H-tetrazol-1-yl)propan-2-ol]
OC(Cn1cnnn1)(c1ccc(F)cc1F)C(F)(F)c1ccc(-c2cccc(C(F)(F)F)c2)cn1 (stereo not shown) [Example 31, 2-(2,4-Difluorophenyl)-1,1-difluoro-3-(1H-tetrazol-1-yl)-1-(5-(3-(trifluoromethyl)phenyl)pyridin-2-yl)propan-2-ol]
OC(Cn1cnnn1)(c1ccc(Cl)cc1F)C(F)(F)c1ccc(-c2ccc(OC(F)(F)F)cc2)cn1 (stereo not shown) [Example 34, 2-(4-Chloro-2-fluorophenyl)-1,1-difluoro-3-(1H-tetrazol-1-yl)-1-(5-(4-(trifluoromethoxy)phenyl)pyridin-2-yl)propan-2-ol]

MIC, 1.5 to 4 µg/mL:
CC(F)(c1ccc(-c2ccc(F)cc2)cn1)C(O)(Cn1ncnn1)c1ccc(F)cc1F (stereo not shown) [Example 48, 2-(2,4-Difluorophenyl)-3-fluoro-3-(5-(4-fluorophenyl)pyridin-2-yl)-1-(2H-tetrazol-2-yl)butan-2-ol]

Same assay, conditions: rating scale

Candida MIC Rating, A (≤0.5):
CC(F)(c1ccc(-c2ccc(OCC(F)(F)F)cc2)cn1)C(O)(Cn1cnnn1)c1ccc(F)cc1F (stereo not shown) [Example 57, 2-(2,4-Difluorophenyl)-3-fluoro-1-(1H-tetrazol-1-yl)-3-(5-(4-(2,2,2-trifluoroethoxy)phenyl)pyridin-2-yl)butan-2-ol]
CC(F)(c1ccc(-c2ccc(F)cc2)cn1)C(O)(Cn1cnnn1)c1ccc(F)cc1F (stereo not shown) [Example 51, 2-(2,4-Difluorophenyl)-3-fluoro-3-(5-(4-fluorophenyl)pyridin-2-yl)-1-(1H-tetrazol-1-yl)butan-2-ol]
